Assay results reported in ChEMBL document CHEMBL5108073, “Evolution of Potential Antimitotic Stapled Peptides from Multiple Helical Peptide Stretches of the Tubulin Heterodimer Interface: Helix-Mimicking Stapled Peptide Tubulin Inhibitors” (J Med Chem, 2022).
pIC50, pKd: −log10 of the molar value. Active and inactive are the calls of the source. The rule behind the calls is not given here. Numbered stars: 1 amine (or outer) side, 2 acyl side, 3 side chain; on linkers, the order of the positions; unused ones are H or OH. Bridge positions count the residues as written; N and C are the ends. Square brackets hold non-standard residues; d marks the D form. Peptide text beside a SMILES is read from it. Nle(6-ylidene) = O=C([C@H](CCCC=[*:3])N[*:1])[*:2]; Phe(4-Br) = N[C@@H](Cc1ccc(Br)cc1)C(=O)O; Phe(4-Cl) = N[C@@H](Cc1ccc(Cl)cc1)C(=O)O; Phe(4-F) = N[C@@H](Cc1ccc(F)cc1)C(=O)O; Phe(4-I) = N[C@@H](Cc1ccc(I)cc1)C(=O)O

Legend:
MCF7 [1] = assay: Cytotoxicity against human MCF7 cells assessed as reduction in cell viability incubated for 24 hrs by MTT assay; format: functional, cell-based; details: MCF7, 24 h
Tubulin [2] = assay: Binding affinity to tubulin (unknown origin) assessed as binding constant by SPR analysis; format: protein-complex assay, Homo sapiens
MCF7 [3] = assay: Induction of apoptosis in human MCF7 cells assessed as upregulation of Mad2 protein expression by Western blot analysis; format: functional, cell-based
Tubulin (Homo sapiens) [4] = target: T1, Tubulin (Homo sapiens) (UniProt P68371+Q9H4B7+P0DPH7+P68366+Q13509+Q71U36+P04350+Q3ZCM7+P07437+P68363+Q9BQE3+Q6PEY2+Q13885+Q9BVA1+Q9BUF5); assay: Binding affinity to tubulin (unknown origin) assessed as association constant by SPR analysis; format: protein-complex assay
MCF7 [5] = assay: Induction of apoptosis in human MCF7 cells assessed as viable cells by annexin V FITC and propidium iodide staining based flow cytometry (reference value: 100 %); format: functional
Tubulin (Homo sapiens) [6] = target: T1, Tubulin (Homo sapiens); assay: Induction of microtubule depolymerization in human MCF7 cells; format: cell-based
MCF7 [7] = assay: Induction of apoptosis in human MCF7 cells assessed as early apoptotic cells by annexin V FITC and propidium iodide staining based flow cytometry (reference value: 0 %); format: functional
[8] = Metabolic stability in human plasma at 200 uM incubated for 24 hrs by MALDI-MS analysis; format: ADME, cell-free
MCF7 [9] = assay: Induction of cell cycle arrest in human MCF7 cells assessed as accumulation of cells at G2/M phase; format: functional, cell-based
MCF7 [10] = assay: Induction of apoptosis in human MCF7 cells assessed as upregulation of BubR1 protein expression by Western blot analysis; format: functional, cell-based
MCF7 [11] = assay: Drug uptake in human MCF7 cells at 4 uM incubated for 24 hrs by fluorescence microscopic analysis; format: functional, cell-based
MCF7 [12] = assay: Induction of apoptosis in human MCF7 cells assessed as upregulation of p53 protein expression by Western blot analysis; format: functional, cell-based
MCF7 [13] = assay: Induction of apoptosis in human MCF7 cells assessed as late apoptotic cells by annexin V FITC and propidium iodide staining based flow cytometry (reference value: 0 %); format: functional
MCF7 [14] = assay: Induction of apoptosis in human MCF7 cells assessed as necrotic cells by annexin V FITC and propidium iodide staining based flow cytometry (reference value: 0 %); format: functional
Tubulin [15] = assay: Binding affinity to tubulin (unknown origin) assessed as binding constant by ITC analysis; format: protein-complex assay, Homo sapiens
[16] = Drug uptake in human MCF7 cells at 4 uM incubated for 24 hrs by flow cytometry analysis; format: ADME, cell-based; details: mcf7, 24 h
MCF7 [17] = assay: Induction of apoptosis in human MCF7 cells assessed as upregulation of p21 protein expression by Western blot analysis; format: functional, cell-based
B16-F10 [18] = assay: Antitumor activity against mouse B16F10 cells implanted in C57BL/6J mouse assessed as blood vessels damage at 5 mg/kg, ip administered for 14 days by caliper method; format: functional, organism-based; details: time 14.0 day
B16-F10 [19] = assay: Antitumor activity against mouse B16-F10 cells implanted in C57BL/6J mouse assessed as reduction in tumor size at 5 mg/kg, ip administered for 14 days by caliper method; format: functional, organism-based; details: time 14.0 day
Tubulin (Homo sapiens) [20] = target: T1, Tubulin (Homo sapiens); assay: Binding affinity to microtubule in human MCF7 cells at 20 uM after 2 hrs by Hoechst 33258 staining based fluorescence microscopy analysis; format: cell-based
B16-F10 [21] = assay: Antitumor activity against mouse B16F10 cells implanted in C57BL/6J mouse assessed as tumor cell damage at 5 mg/kg, ip administered for 14 days by caliper method; format: functional, organism-based; details: time 14.0 day
B16-F10 [22] = assay: Antitumor activity against mouse B16F10 cells implanted in C57BL/6J mouse assessed as tumor muscle damage at 5 mg/kg, ip administered for 14 days by caliper method; format: functional, organism-based; details: time 14.0 day
MCF7 [23] = assay: Antitumor activity in human MCF7 cells cultured as 3D spheroids assessed as decrease in spheroid volume at 4 uM measured up to 7 days by inverted microscopic analysis; format: functional, cell-based; details: time <= 7.0 day
Tubulin (Homo sapiens) [24] = target: T1, Tubulin (Homo sapiens); assay: Inhibition of tubulin polymerization (unknown origin) at 10 uM by turbidity assay; format: protein-complex assay
Tubulin (Homo sapiens) [25] = target: T1, Tubulin (Homo sapiens); assay: Inhibition of tubulin polymerization (unknown origin) at 10 uM by DAPI staining based assay; format: protein-complex assay
Tubulin [26] = assay: Binding affinity to tubulin (unknown origin) assessed as binding constant by tryptophan quenching analysis; format: protein-complex assay, Homo sapiens
[27] = Toxicity in C57BL/6J mouse implanted with B16F10 cells assessed as change in body weight at 5 mg/kg, ip administered for 14 days; format: organism-based, B16-F10; details: in vivo, 336 h, time 14 day

Row | SMILES | pKd (Tubulin [2]) | Ka (Tubulin (Homo sapiens) [4]) | Activity (Tubulin (Homo sapiens) [6]) | Stability [8] | Ka (Tubulin [15]) | Drug uptake [16] | pIC50 (MCF7 [1]) | Activity (MCF7 [3]) | Activity (MCF7 [5]) | Activity (MCF7 [7]) | Activity (MCF7 [9]) | Activity (MCF7 [10]) | Activity (MCF7 [11]) | Activity (MCF7 [12]) | Activity (MCF7 [13]) | Activity (MCF7 [14]) | Activity (MCF7 [17]) | further results
1 | CC(=O)N[C@@H](Cc1ccccc1)C(=O)N[C@@H](CCCNC(=N)N)C(=O)N[C@@H](CCCNC(=N)N)C(=O)N[C@@H](CCCCN)C(=O)N[C@@H](C)C(=O)N[C@@H](Cc1ccc(I)cc1)C(=O)N[C@H]1CCC/C=C\CCC[C@@H](C(=O)NCC(=O)O)NC(=O)[C@H](Cc2ccc(O)cc2)NC(=O)[C@H](Cc2c[nH]c3ccccc23)NC(=O)[C@H](Cc2cnc[nH]2)NC1=O (Ac-FRRKA[Phe(4-I)][Nle(6-ylidene)]HWY[Nle(6-ylidene)]G-OH; staple (Z) 7-11) | 5.39 | – | – | – | – | – | 4.28 | – | – | – | – | – | – | – | – | – | – | –
2 | C[C@H](NC(=O)[C@H](CCCCN)NC(=O)[C@H](CCCNC(=N)N)NC(=O)[C@H](CCCNC(=N)N)NC(=O)[C@@H](N)Cc1ccccc1)C(=O)N[C@@H](Cc1ccccc1)C(=O)N[C@H]1CCC/C=C\CCC[C@@H](C(=O)NCC(=O)O)NC(=O)[C@H](Cc2ccc(O)cc2)NC(=O)[C@H](Cc2c[nH]c3ccccc23)NC(=O)[C@H](Cc2c[nH]cn2)NC1=O (H-FRRKAF[Nle(6-ylidene)]HWY[Nle(6-ylidene)]G-OH; staple (Z) 7-11) | 5.15 | 1.43 10^4/M/s | Active | Stable | 10500 M⁻¹ | Active | 4.43 | Active | 31.8% | 0.5% | Active | Active | Active | Active | 24.2% | 43.6% | Active | –
3 | CC(C)C[C@H](NC(=O)[C@H](Cc1ccccc1)NC(=O)[C@H](C)NC(=O)[C@H](CCCCN)NC(=O)[C@H](CCCNC(=N)N)NC(=O)[C@H](CCCNC(=N)N)NC(=O)[C@@H](N)Cc1ccccc1)C(=O)N[C@@H](Cc1c[nH]cn1)C(=O)N[C@@H](Cc1c[nH]c2ccccc12)C(=O)N[C@@H](Cc1ccc(O)cc1)C(=O)N[C@H](C(=O)NCC(=O)O)[C@@H](C)O (H-FRRKAFLHWYTG-OH) | – | – | – | Unstable | – | – | 3.57 | – | – | – | – | – | – | – | – | – | – | –
4 | CC(=O)N[C@@H](Cc1ccccc1)C(=O)N[C@@H](CCCNC(=N)N)C(=O)N[C@@H](CCCNC(=N)N)C(=O)N[C@@H](CCCCN)C(=O)N[C@@H](C)C(=O)N[C@@H](Cc1ccc(Br)cc1)C(=O)N[C@H]1CCC/C=C\CCC[C@@H](C(=O)NCC(=O)O)NC(=O)[C@H](Cc2ccc(O)cc2)NC(=O)[C@H](Cc2c[nH]c3ccccc23)NC(=O)[C@H](Cc2cnc[nH]2)NC1=O (Ac-FRRKA[Phe(4-Br)][Nle(6-ylidene)]HWY[Nle(6-ylidene)]G-OH; staple (Z) 7-11) | 5.40 | 1.9 10^4/M/s | – | – | – | – | 4.47 | – | – | – | – | – | – | – | – | – | – | –

Second part, led by results:

Row | pKd (Tubulin [2]) | Ka (Tubulin (Homo sapiens) [4]) | Activity (Tubulin (Homo sapiens) [6]) | Stability [8] | Ka (Tubulin [15]) | Drug uptake [16] | SMILES | pIC50 (MCF7 [1]) | Activity (MCF7 [3]) | Activity (MCF7 [5]) | Activity (MCF7 [7]) | Activity (MCF7 [9]) | Activity (MCF7 [10]) | Activity (MCF7 [11]) | Activity (MCF7 [12]) | Activity (MCF7 [13]) | Activity (MCF7 [14]) | Activity (MCF7 [17]) | further results
5 | 5.44 | 2.14 10^4/M/s | Active | Stable | 45200 M⁻¹ | Active | CC(=O)N[C@@H](Cc1ccccc1)C(=O)N[C@@H](CCCNC(=N)N)C(=O)N[C@@H](CCCNC(=N)N)C(=O)N[C@@H](CCCCN)C(=O)N[C@@H](C)C(=O)N[C@@H](Cc1ccc(F)cc1)C(=O)N[C@H]1CCC/C=C\CCC[C@@H](C(=O)NCC(=O)O)NC(=O)[C@H](Cc2ccc(O)cc2)NC(=O)[C@H](Cc2c[nH]c3ccccc23)NC(=O)[C@H](Cc2c[nH]cn2)NC1=O (Ac-FRRKA[Phe(4-F)][Nle(6-ylidene)]HWY[Nle(6-ylidene)]G-OH; staple (Z) 7-11) | 5.43 | Active | 12.2% | 23.5% | Active | Active | Active | Active | 58% | 6.3% | Active | Activity (B16-F10 [18]): Active; Activity (B16-F10 [19]): Active; Activity (Tubulin (Homo sapiens) [20]): Active; Activity (B16-F10 [21]): Active; Activity (B16-F10 [22]): Active; Activity (MCF7 [23]): Active; inhibition (Tubulin (Homo sapiens) [24]): Active; inhibition (Tubulin (Homo sapiens) [25]): Active; Ka (Tubulin [26]): 46300 M⁻¹; Activity [27]: Non-Toxic
6 | 5.48 | 2.05 10^4/M/s | – | – | – | – | CC(=O)N[C@@H](Cc1ccccc1)C(=O)N[C@@H](CCCNC(=N)N)C(=O)N[C@@H](CCCNC(=N)N)C(=O)N[C@@H](CCCCN)C(=O)N[C@@H](C)C(=O)N[C@@H](Cc1ccc(Cl)cc1)C(=O)N[C@H]1CCC/C=C\CCC[C@@H](C(=O)NCC(=O)O)NC(=O)[C@H](Cc2ccc(O)cc2)NC(=O)[C@H](Cc2c[nH]c3ccccc23)NC(=O)[C@H](Cc2cnc[nH]2)NC1=O (Ac-FRRKA[Phe(4-Cl)][Nle(6-ylidene)]HWY[Nle(6-ylidene)]G-OH; staple (Z) 7-11) | 4.73 | – | – | – | – | – | – | – | – | – | – | –
